Data on 3 molecules can be found in article PMC8241045, “Improving anti-tumor activity of sorafenib tosylate by lipid- and polymer-coated nanomatrix” (Drug Delivery, 2017).

SMILES strings stand for the structures. Converted amounts (≈) assume the structure as drawn. Where a name gives a salt, the structure may show the parent alone. Read-outs that look alike come from different tables or passages of the source. Some results are limits rather than exact numbers.

Series [1] is described as follows: Solubility in distilled water (shake-flask, HPLC). The note with it: 37 °C, thermodynamic from solid. The series is classed as physicochemical.
For series [2] the following is noted: cited from earlier work.
For series [3] the following is noted: very low aqueous solubility in GI fluids, high permeability; cited from earlier work.
The next series deals with MDA-MB-231 cells. Put plainly: In vitro cytotoxicity, sulforhodamine B assay. In kind it is cell-based. The note with it: Homo sapiens, 48 h, SRB assay, n = 3. As to the method: The cytotoxicity of MSNM@SFN against MDA-MB-231 cells was measured by sulforhodamine B assay (SRB assay). Briefly, MDA-MB-231 cells (1 × 10^4 cells per well) were seeded in a 96-well plate and grown in medium for 24 h. Then, the cells were treated with cell culture medium containing the different amounts of MSNM@SFN for 48 h at 37 °C. The cell viability was determined by SRB assay. Absorbance was measured at 540 nm using a 96-well plate reader (model 680; Bio-Rad Laboratories, Hercules, CA). The survival percentages were calculated using the formula: survival % = (A540 nm for the treated cells/A540 nm for the control cells) × 100%, where A540 nm is the absorbance value. Each assay was carried out in triplicate. Finally, dose–effect curves were constructed and IC50 values were calculated.
On the technique in general: Sulforhodamine B stains cellular protein and so reports cell mass.

Usually solubility stands for how much of the substance goes into solution per volume. Consider `CC(=O)O[C@H]1C(=O)[C@@]2(C)[C@H]([C@H](OC(=O)c3ccccc3)[C@]3(O)C[C@H](OC(=O)[C@H](O)[C@@H](NC(=O)c4ccccc4)c4ccccc4)C(C)=C1C3(C)C)[C@]1(OC(C)=O)CO[C@@H]1C[C@@H]2O` [PTX, paclitaxel], for which the solubility at 48 h in series [1] (water, read-out: Solubility of PTX) worked out at 0.17 ± 0.02 µg/mL (≈ 0.199 µM).
Consider `CCc1c2c(nc3ccc(O)cc13)-c1cc3c(c(=O)n1C2)COC(=O)[C@]3(O)CC` [SN38, 7-ethyl-10-hydroxycamptothecin], for which the solubility at 48 h in series [1] (water, read-out: Solubility of SN38) was < 0.01 µg/mL.
Broadly, the LogP is the decadic logarithm of the partition coefficient of the neutral form, usually between octanol and water. The IC50 is the midpoint of a concentration-inhibition curve. Turning to `CNC(=O)c1cc(Oc2ccc(NC(=O)Nc3ccc(Cl)c(C(F)(F)F)c3)cc2)ccn1` [SFN, Sorafenib tosylate], in series [1] (48 h, read-out: Solubility of SFN), the solubility at 48 h is < 0.1 µg/mL. For the same molecule, the lipophilicity (LogP) in series [2] was 3.8. Further, the BCS class entry in series [3] is recorded as “BCS II”. Further, the concentration for half-maximal inhibition (IC50) in the series on MDA-MB-231 cells came to 5.84 ± 0.17 µM.
